Test results as given in paper PMC6744473, “Structure of the thermo-sensitive TRP channel TRP1 from the alga Chlamydomonas reinhardtii” (Nature Communications, 2019).
Counter-ions that a name gives are not always drawn.

Legend:
crTRP1 [1] = target: T1, crTRP1 (Chlamydomonas reinhardtii, UniProt Q0Z852); test: planar lipid bilayer single-channel recording; type: biochemical; conditions: inhibitor 10 µM; 2.5 µM PIP2, 28 °C, +120 mV
T1 construct: HEK 293S GnTI-; purified in GDN or LMNG; homotetramer; from primer N-terminus MKVAPAPASGQP, C-terminus TAAAGH before the tag
T1 sequence (Q0Z852 1-901): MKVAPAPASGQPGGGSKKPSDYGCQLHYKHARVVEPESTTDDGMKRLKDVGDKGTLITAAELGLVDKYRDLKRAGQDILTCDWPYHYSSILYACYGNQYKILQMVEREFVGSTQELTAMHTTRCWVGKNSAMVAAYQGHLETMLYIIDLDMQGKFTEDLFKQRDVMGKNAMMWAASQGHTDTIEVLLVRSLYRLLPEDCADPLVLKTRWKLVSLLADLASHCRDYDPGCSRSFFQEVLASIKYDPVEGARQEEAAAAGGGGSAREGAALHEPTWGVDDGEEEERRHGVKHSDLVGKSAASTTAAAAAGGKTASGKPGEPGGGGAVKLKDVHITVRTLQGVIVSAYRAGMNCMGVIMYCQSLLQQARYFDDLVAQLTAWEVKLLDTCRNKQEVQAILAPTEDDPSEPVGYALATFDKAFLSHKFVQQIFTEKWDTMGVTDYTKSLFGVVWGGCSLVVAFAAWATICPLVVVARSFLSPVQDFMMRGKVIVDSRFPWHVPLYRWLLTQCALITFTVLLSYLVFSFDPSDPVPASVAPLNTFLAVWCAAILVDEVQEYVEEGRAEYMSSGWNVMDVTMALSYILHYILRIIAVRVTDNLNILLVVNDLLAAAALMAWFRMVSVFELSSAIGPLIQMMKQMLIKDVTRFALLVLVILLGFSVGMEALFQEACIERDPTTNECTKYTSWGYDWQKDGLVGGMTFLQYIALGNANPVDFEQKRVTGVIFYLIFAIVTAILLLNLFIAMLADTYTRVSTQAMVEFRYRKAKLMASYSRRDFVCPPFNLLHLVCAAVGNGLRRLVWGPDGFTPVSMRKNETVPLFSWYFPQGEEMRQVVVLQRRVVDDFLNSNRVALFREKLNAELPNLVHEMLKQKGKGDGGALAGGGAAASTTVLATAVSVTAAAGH

crTRP1 [2] = target: T1, crTRP1; test: planar lipid bilayer single-channel recording; type: biochemical; conditions: activator 2.5 µM; POPG/POPC/POPE bilayer, pH 7.2, 28 °C; diC8 form added to both compartments
crTRP1 [3] = target: T2, crTRP1 (Chlamydomonas reinhardtii, UniProt Q0Z852); test: planar lipid bilayer single-channel recording; type: biochemical; conditions: activator test; deletion borders not given, only primers; loss of activation
T2 construct: HEK 293S GnTI-; purified in GDN or LMNG; homotetramer; from primer N-terminus MKVAPAPASGQP, C-terminus TAAAGH before the tag

[4] = target: transient receptor potential (TRP) channel crTRP1 from Chlamydomonas reinhardtii (Chlamydomonas reinhardtii); test: cryo-EM structure; crTRP1 in MSP2N2 nanodiscs (POPC:POPE 3:1; 150 mM KCl, 20 mM Hepes pH 7.4, 1 µM CaCl2, 20 µM MgCl2, no detergent); grids frozen at 22 °C; 3.45 Å; C2 symmetry; self-association: homotetramer
[5] = target: transient receptor potential (TRP) channel crTRP1 from Chlamydomonas reinhardtii (Chlamydomonas reinhardtii); test: cryo-EM structure; crTRP1 in detergent GDN (20 mM Tris pH 8.0, 150 mM NaCl, 0.01% GDN, 1 mM BME, 10 mM TCEP added); grids frozen at 4 °C; 3.53 Å; self-association: homotetramer

CC(C)(C)c1ccc(NC(=O)N2CCN(c3ncccc3Cl)CC2)cc1 [BCTC, N-(4-tertiarybutylphenyl)-4-(3-cholorphyridin-2-yl)tetrahydropyrazine-1(2 H)-carbox-amide]
Po change at 10 μM (crTRP1 [1]): BCTC) strongly suppressed crTRP1-mediated currents (Fig. 1g, h)

CCCCCCCC(=O)OC[C@H](COP(=O)(O)O[C@@H]1[C@H](O)[C@H](O)[C@@H](OP(=O)(O)O)[C@H](OP(=O)(O)O)[C@H]1O)OC(=O)CCCCCCC [PIP2, 1-(1,2R-dioctanoylphosphatidyl)inositol-4,5-bisphosphate, trisodium salt]
planar lipid bilayer single-channel recording (crTRP1 [2]): Addition of PIP2 readily evoked channel openings. | planar lipid bilayer single-channel recording (crTRP1 [3]): deleting the entire pre-S1 elbow resulted in a greatly reduced Po and loss of activation by PIP2

transient receptor potential (TRP) channel crTRP1 from Chlamydomonas reinhardtii (natural protein)
stoichiometry N [4]: 4 | stoichiometry N [5]: 4
